For orientation: GI50 means the concentration that inhibits growth by half.

Experimental findings from ChEMBL document CHEMBL1201862, “PubChem BioAssay data set” (2004) are described below.

Common to all, as to assay: DTP human tumour cell line panel, 48 h
In experiment [1] the test system is IGROV-1.
Experiment [2] relates to SK-MEL-5.
The subject of experiment [3] is NCI-H460.
The subject of experiment [4] is NCI-H522.
Experiment [5] deals with HCC 2998.
The test system of experiment [6] is HCT-116.
Experiment [7] concerns SR.
For experiment [8], the system named is SF-295.
The test system of experiment [9] is OVCAR-3.
Experiment [10] deals with CAKI-1.
The subject of experiment [11] is COLO 205.
The test system of experiment [12] is NCI/ADR-RES.
In experiment [13] the test system is HL-60.
The test system of experiment [14] is NCI-H23.
The test system of experiment [15] is TK-10.
For experiment [16], the system named is MDA-MB-435.
Experiment [17] concerns MCF7.
The subject of experiment [18] is EKVX.
Experiment [19] has as its system RPMI-8226.

Values joined by “and” are separate entries in the source; they are usually repeats but may differ in a detail not shown here. Equal entries are not always repeated.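 Interpolation was linear, between the two tested concentrations surrounding the appropriate level; five concentrations were tested over 48 hours in 96-well plates. GI50 is the concentration that inhibits growth by half.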 Active and inactive are the calls of the source. Cut-off read from the data, not from the text of the source: active = GI50 up to about 1.1 µM and inactive = higher.

Turning to `Oc1ccc2cc(Br)ccc2c1-c1c(O)ccc2ccc(Br)cc12`, the GI50 is 8.3 µM (inactive) in [1]; 23 µM (inactive) in [2]; 4.12 µM (inactive) in experiment [3]; 15.2 µM (inactive) in experiment [4]; 6.52 µM (inactive) in [5]; 14.4 µM (inactive) in experiment [6]. Further, the GI50 was 14.3 µM (inactive) in [7]; 15.4 µM (inactive) in experiment [8]; 13.9 µM (inactive) in [9]; 18.8 µM (inactive) in [10]; 13.6 µM (inactive) in [11]; 13.6 µM (inactive) in experiment [12]. The GI50 was 5.42 µM (inactive) in experiment [13]; 14.4 µM (inactive) in experiment [14]; 16.7 µM (inactive) in experiment [15]; 16.2 µM (inactive) in experiment [16]; 13 µM (inactive) in experiment [17].
On to `CC1=NN2C=Nc3c(c(-c4ccc(Cl)cc4)cn3-c3ccc(C)cc3)C2N1` (centres undefined), for which the GI50 was 76.6 µM (inactive) in [1]; 87.9 µM (inactive) in experiment [2]; 56.6 µM (inactive) in experiment [3]; > 100 µM (inactive) in [18]; > 100 µM (inactive) in experiment [4]; > 100 µM (inactive) in experiment [5]. Besides, the GI50 in [6] was 46.2 µM (inactive); in experiment [7] it was 0.288 µM (active); in experiment [8] it was 39.3 µM (inactive); in [9], > 100 µM (inactive); in [10], 97.3 µM (inactive); in [11], > 100 µM (inactive). Further, the GI50 in experiment [12] was 55.8 µM (inactive); in experiment [13] it was > 100 µM (inactive); in [14] it was > 100 µM (inactive); in experiment [15], 42.8 µM (inactive); in experiment [16], > 100 µM (inactive); in experiment [17] it was > 100 µM (inactive).
In the case of `COC1OC(COC(=O)NCCCCC(=O)C(F)(F)C(F)(F)C(F)(F)C(F)(F)C(F)(F)C(F)(F)C(F)(F)F)C(O)C(O)C1O` (centres undefined), the GI50 in [1] was 16.5 µM (inactive) and 14.3 µM (inactive); in experiment [2] it was 13.1 µM (inactive) and 12 µM (inactive); in experiment [3], 22.4 µM (inactive) and 16.8 µM (inactive); in experiment [5], 19.6 µM (inactive) and 19.5 µM (inactive); in [6] it was 15 µM (inactive) and 19 µM (inactive); in experiment [19], 28.9 µM (inactive) and 29.9 µM (inactive). Moreover, the GI50 in [7] was 30.3 µM (inactive) and 42.9 µM (inactive); in experiment [8], 20.7 µM (inactive) and 19.5 µM (inactive); in [9], 15.5 µM (inactive) and 14.9 µM (inactive); in experiment [10], 16.4 µM (inactive) and 17.2 µM (inactive); in experiment [11], 25.9 µM (inactive) and 21.8 µM (inactive); in experiment [12], 34.5 µM (inactive) and 28.4 µM (inactive). Besides, the GI50 in experiment [14] was 14.8 µM (inactive) and 17.8 µM (inactive); in [15] it was 16.9 µM (inactive) and 16.4 µM (inactive); in experiment [16] it was 15.8 µM (inactive) and 16.6 µM (inactive); in [17], 17.6 µM (inactive) and 18.4 µM (inactive).
With `CSCCCNC(=O)c1csc(-c2csc(CCNC(=O)CNC(=O)OC(C)(C)C)n2)n1`, the GI50 in experiment [1] is > 100 µM (inactive); in experiment [2], 47.4 µM (inactive); in [3] it was > 100 µM (inactive); in experiment [18], > 100 µM (inactive); in experiment [4], > 100 µM (inactive); in experiment [5], > 100 µM (inactive). For the same compound, the GI50 in [6], in experiment [7], in experiment [8], in experiment [9], in [10] and in experiment [11] was > 100 µM (inactive) throughout. Besides, the GI50 in [12] is > 100 µM (inactive); in experiment [14], 77.6 µM (inactive); in experiment [15], > 100 µM (inactive); in experiment [16], > 100 µM (inactive); in experiment [17], 46.6 µM (inactive).
As to `CSc1ccn(C2CC(F)C(CO)O2)c(=O)n1` (centres undefined), the GI50 in experiment [1], in experiment [2], in experiment [3], in experiment [18], in experiment [4] and in experiment [5] was > 100 µM (inactive) each time. Also, the GI50 in experiment [6], in experiment [7], in [8], in [9], in experiment [10] and in experiment [11] was > 100 µM (inactive) throughout. Besides, the GI50 in experiment [12], in [13], in experiment [14], in [15], in experiment [16] and in [17] was > 100 µM (inactive) throughout.
For the compound `CCN1C(Cl)=NS(=O)(=O)c2ccccc21`, the GI50 in [1] is 23.1 µM (inactive); in experiment [2] it was 13.6 µM (inactive); in experiment [3] it was 22.8 µM (inactive); in experiment [18] it was 23.8 µM (inactive); in experiment [4] it was 4.66 µM (inactive); in [5], 20.3 µM (inactive). The GI50 in experiment [6] is 23.8 µM (inactive); in experiment [7], 34.1 µM (inactive); in experiment [8], > 100 µM (inactive); in [9] it was 19.3 µM (inactive); in experiment [10], 1.93 µM (inactive); in experiment [11], 14.9 µM (inactive). Further, the GI50 in [12] is 26.5 µM (inactive); in experiment [13], 3.87 µM (inactive); in experiment [14] it was 23.6 µM (inactive); in experiment [15] it was 18.5 µM (inactive); in [16], 49.7 µM (inactive); in experiment [17], 27.5 µM (inactive).
On to `CC1(O)CC23CC1CCC2(C)C12CCCC(C)(C(=O)O1)C2CC3O` (centres undefined), for which the GI50 in experiment [1], in [2], in experiment [3], in experiment [18], in experiment [4] and in experiment [5] was > 100 µM (inactive) throughout. In addition, the GI50 in [6], in [7], in [8], in [10], in [11] and in experiment [12] was > 100 µM (inactive) each time. The GI50 in [13] is > 10 µM (inactive); in experiment [14] it was > 100 µM (inactive); in experiment [15], > 100 µM (inactive); in [16], > 100 µM (inactive); in experiment [17], > 100 µM (inactive).
Take `C=C1C2CCC3C4(C)CCCC(C)(C(=O)O)C4CCC3(C2)C1OC(=O)/C(C)=C/C` (centres undefined): the GI50 in experiment [1] was 27.1 µM (inactive); in experiment [2], 27.4 µM (inactive); in experiment [3], 34.6 µM (inactive); in [18] it was 35.1 µM (inactive); in [4], 31.8 µM (inactive); in experiment [5], 26.7 µM (inactive). The GI50 in [6] was 38.5 µM (inactive); in [7], 2.98 µM (inactive); in [8] it was 20.3 µM (inactive); in experiment [9], 19.8 µM (inactive); in experiment [10] it was 26.2 µM (inactive); in [11], 29.6 µM (inactive). The GI50 in experiment [12] was 21.1 µM (inactive); in experiment [13] it was 29.9 µM (inactive); in experiment [14] it was 36.8 µM (inactive); in experiment [15], 72.8 µM (inactive); in experiment [16], 34 µM (inactive); in experiment [17], 32.7 µM (inactive).
